Results as given in patent US20020132832A1, “Treatment of erectile dysfunction” (priority 2001, published 2002).

Experiments:
[1] = system: corpus cavernosum; assay: Ganglionic (major pelvic ganglion) stimulated increase in CCP/MAP in anesthetized rat; assay type: in vivo; conditions: for CCP/MAP at 5 V (mean ± s.e.m.): n=4; for effect on baseline CCP or MAP: no stimulation
Protocol: (§1) Using an in vivo rat model, the effect of Rho-kinase inhibition on corpus cavernosum (CCP) and mean arterial pressure (MAP) was examined. The left carotid artery and right corpus cavernosum of the rat penis were cannulated for continuous monitoring of MAP and CCP respectively as described by Mills, T., et al., (Biol. Reprod. 59, 1413-1418, 1998; J. Appl. Physiol., 91: 1269-1273, 2001). Rats were anesthetized with intramuscular ketamine (87 mg/kg body wt) plus xylazine (13 mg/kg) and maintained on supplemental ketamine as needed. Vasoactive drugs were administered through a cannula in the left corpus cavernosum. For experiments measuring voltage-stimulated changes in CCP and MAP, stainless steel bipolar electrodes were positioned on the right major pelvic ganglion. […] All pressure data were collected for analysis using Polyview data-acquisition software.
After initial measurements of CCP and MAP during ganglionic stimulation, rats were treated with L-NNA, L-NAME (200 μg/kg body weight), or saline control, and after 5 min ganglionic stimulation and CCP/MAP measurements were repeated. […] After 5 min, a 5-V stimulation was repeated, and CCP and MAP measurements were recorded.
Rho-kinase inhibition can also overcome muscle contraction due to inhibition of cyclic GMP formation. […] After 5 min, a 5-V stimulation was repeated, and CCP and MAP measurements were recorded.

[2] = system: isolated rat cavernosal tissue; assay: Isolated rat cavernosal strips, relaxation of agonist-induced contraction; assay type: cell-based; conditions: for effect on relaxation response of cavernosal strips to 1 μM Y-27632: 10 μM incubation
Protocol: Cavernosal strips (3-4 mm long) were prepared by removal of the corpus spongiosum and dorsal vein, and the proximal portion of the corpus cavernosum divided across the midline of the intact penis. Right and left longitudinal strips were mounted in an isolated muscle bath for measurement of contractile force generation. Strips were bathed in physiologic salt solution (130 mM NaCl, 4.7 mM KCl, 1.18 mM KHPO4, 1.17 mM […], 1.6 mM CaCl2-2H2O, 14.9 mM NaHCO3, 5.5 mM dextrose, and 0.03 mM CaNa2 EDTA), at 37° C., and gassed with 95% O2/5% CO2.

[3] = system: corpus cavernosum; assay: Erectile response to electrical stimulation of the autonomic ganglion after phosphatase inhibitor injected into corpus cavernosum; assay type: in vivo; conditions: data not shown
Excerpt: In an embodiment, the target of Rho-kinase is MLC phosphatase (FIG. 2). […] With MLC phosphatase activity inhibited, the resulting high levels of phosphorylated myosin light chain keep the sexual organs in a nonerect state.

[4] = system: erectile tissue; assay: Erectile response ICP/MAP to NO donor and Rho-kinase inhibitor injected into erectile tissue; assay type: in vivo; conditions: small/low dose injected directly into erectile tissue
[5] = system: DOCA-salt hypertensive rats; assay: Ganglionic-mediated ICP/MAP in DOCA-salt hypertensive rats; assay type: in vivo, rat; conditions: 50 nmol/kg into left corpus cavernosum, 1-5 V
Excerpt: (§2) In these experiments, male Sprague-Dawley rats (200-250 g; Harlan) were made DOCA-salt hypertensive by uninephrectomy and implantation of a deoxycorticosterone-acetate (DOCA) silastic pellet at the back of the neck. DOCA rats received saltwater (1% NaCl, 0.2% KCl) for 4 weeks. Sham control rats were uninephrectomized and drank tap water. Male stroke prone-spontaneously hypertensive rats (12 weeks old, 350 g) were obtained from the breeding colony at the Medical College of Georgia, Augusta, Ga. Systolic blood pressures were taken by tail cuff measurement (DOCA/sham: after 4 weeks treatment; SHRSP: at 12 weeks of age). Measurement of ICP/MAP was as described above. […] Subsequently, the ICP/MAP response to ganglionic stimulation was assessed over a range of voltages.

[6] = system: cultured cells; conditions: cited from earlier work
[7] = system: animal model of hypertension; conditions: cited from earlier work
[8] = system: SHRSP rats; assay: Ganglionic-mediated ICP/MAP in stroke prone spontaneously hypertensive rats (SHRSP); assay type: in vivo, rat; conditions: 50 nmol/kg into left corpus cavernosum, 1-5 V
Excerpt: as §2

[9] = system: cavernous sinuses; assay: Erectile response to 5V ganglionic stimulation after vasoconstrictor injected into cavernous sinuses; assay type: in vivo; conditions: for effect on erectile response to 5V ganglionic stimulation: METHOX 10 μg/kg or ET-1 50 pmol into cavernous sinuses
Protocol: Thus, FIGS. 8 and 9 show results where after an initial (5V) ganglionic stimulation (Cont), either the α-adrenergic agonist, Methoxamine (METHOX) (10 μg/kg) or endothelin-1 (ET-1) (50 pmol) was injected into the cavernous sinuses.

[10] = system: corpus cavernosum; assay: Intracavernosal injection in anesthetized rat, CCP/MAP without ganglionic stimulation; assay type: in vivo; design: time to plateau of CCP/MAP increase: unit not given here
Protocol: as §1

[11] = system: castrated rats; assay: Erectile response to graded ganglionic stimulation in castrated rats; assay type: in vivo, rat; conditions: intracavernosal injection, 1-5 V
Excerpt: Rats which have been rendered severely hypogonadal by surgical castration show a diminished erectile response.

[12] = system: rat aorta; assay: Rat aortic rings, endothelium intact or denuded, PE-induced contraction; assay type: cell-based
Excerpt: In these experiments, aorta (3 mm rings) were cleaned of adherent connective tissue and hung on stainless steel hooks attached between a force transducer and stationary mount for the measurement of isometric force generation. Endothelium was removed from some vessels by gentle rubbing of the lumen with a steel wire. Aortic rings were then placed in an isolated chamber, bathed in physiologic salt solution (mmol/L: 130 NaCl, 4.7 KCl, 1.18 KHPO4, 1.17 MgSO4, 1.6 CaCl2-2H2O, 14.9 NaHCO3, 5.5 dextrose, and 0.03 CaNa2EDTA; 37° C.) and gassed with 95% O2/5%CO2 Rings were set at 3 g passive tension and treated with indomethacin (1 μmol/L) to inhibit prostaglandin synthesis. Following a one hour equilibration period, vessels were contracted with phenylephrine (PE) (0.1 μmol/L) and subsequently treated with acetylcholine (1 μmol/L) to test for the presence of endothelium.

[13] = male, rat, in vivo
Protocol: as §1

[14] = 200 μg/kg into cavernosal sinuses

Molecule: CN(C)c1ccc2nc3ccc(=[N+](C)C)cc-3sc2c1 [MB, methylene blue]
- CCP/MAP at 5 V (mean ± s.e.m.) ([1]; MB 300-500 μg/kg intracavernosal, Y-27632 50-200 nmol/kg in continued presence of MB): 0.49±0.04
- effect on relaxation response of cavernosal strips to 1 μM Y-27632 [2]: did not significantly alter

Molecule: COC(=O)[C@@H](N)CCCNC(=N)N[N+](=O)[O-] [L-NAME, N^ω-nitro-L-arginine methyl ester]
- effect on increase in CCP/MAP induced by 5 V stimulation ([1]; 200 μg/kg into cavernosal sinuses, 5 V): significantly attenuated
- effect on baseline CCP or MAP [1, 14]: did not alter CCP or MAP from baseline
- effect on relaxation response of cavernosal strips to 1 μM Y-27632 [2]: did not significantly alter
- effect on PE-induced contraction ([2]; 10 μM, 15 min): no effect

Molecule: [Na+].[Na+].[Na+].[O]=[V]([O-])([O-])[O-] [SOV, sodium orthovanadate]
- inhibition of erectile response ([3]; 0.1 and 1 μmol/L SOV): significant inhibition
- effect on erectile response ([3]; injected into corpus cavernosum immediately before stimulation): inhibits the erectile response in a dose dependent manner

Molecule: O=c1onc2cnc3ccccc3n12 [ODQ, 1H-[1,2,4]oxadiozolo-[4,3-a]quinoxalin-1]
- CCP/MAP at 5 V (mean ± s.e.m.) ([1]; ODQ 300-500 μg/kg intracavernosal, Y-27632 50-200 nmol/kg in continued presence of ODQ): 0.50±0.07

Molecule: (+/−)-(E)-methyl-2-((E)-hydroxyimino)-5-nitro-6-methoxy-3-hexenamide [NOR-1]
- erectile response (increase in ICP/MAP) [4]: intermediate erectile response

Molecule: CC(N)[C@H]1CC[C@H](C(=O)Nc2ccncc2)CC1 (single isomer, unassigned; (+)) [Y-27632, monohydrate]
- effect on attenuation of ganglionic-induced CCP/MAP increase by NOS inhibition ([1]; 50 nmol/kg after L-NAME, 5 V): overcome
- effect on CCP/MAP response to ganglionic stimulation ([1]; 200 nmol/kg into cavernous sinuses, 0-5 V): potentiated the CCP/MAP response to ganglionic stimulation at each voltage
- ganglionic-stimulated rise in CCP/MAP at lowest voltages ([1]; 200 nmol/kg, lowest stimulation voltages): near maximal levels
- increase in ganglionic-stimulated CCP/MAP at 5 V ([1]; 2.0-200 nmol/kg, 5 V): 21-38%
- erectile response (ICP/MAP) [5]: elevating the erectile response to near normal levels
- smooth muscle relaxation [6]: cause smooth muscle relaxation
- smooth muscle relaxation [7]: cause smooth muscle relaxation
- erectile response (ICP/MAP) [8]: significantly increasing the erectile response
- erectile response (increase in ICP/MAP) [4]: cause an erectile response
- IC50 ([2]; Rattus norvegicus, read-out: IC50, relaxation of PE-induced tone): 1000 nM
- effect on vasoconstrictor action of ET-1 ([9]; 50 nmol before ET-1 50 pmol, 5V): vasoconstrictor effect was prevented
- effect on vasoconstrictor action of METHOX ([9]; 50 nmol before METHOX 10 μg/kg, 5V): vasoconstrictor effect was prevented
- increase in CCP/MAP ([10]; 2.0-400 nmol/kg body weight in 2 μl saline into left corpus cavernosum sinuses, no stimulation): significant dose-dependent increase
- time to plateau of CCP/MAP increase ([10]; 2.0-400 nmol/kg intracavernosal): about four
- maximum increase in CCP/MAP over control ([10]; range of 2.0-200 nmol/kg, independent of significant changes in MAP): 74%
- erectile response [11]: restored to levels similar to those in age-matched intact animals
- vasodilator sensitivity to SNP ([12]; 1 μmol/L prior to PE contraction, endothelium-denuded vessels): increased vasodialator sensitivity to SNP
- inhibition of force generation to 10 μmol/L PE ([12]; 1 μmol/L, endothelium denuded vessels): completely ineffective
- inhibition of force generation to 10 μmol/L PE ([12]; 1 μmol/L, endothelium intact rings): significant inhibition of force generation
- inhibition of contractile response to 10 μmol/L PE ([12]; 1 μmol/L, endothelium intact, in presence of L-NNA (100 μmol/L) or ODQ (10 μmol/L)): significantly less effective
- inhibition of contractile response to 10 μmol/L PE ([12]; 10 μmol/L or 100 μmol/L, endothelium denuded rings): concentration dependent inhibition
- dose at which MAP was significantly decreased [13]: ≥ 400 nmol/kg

Molecule: N=C(NCCC[C@H](N)C(=O)O)N[N+](=O)[O-] [L-NNA, N^ω-nitro-L-arginine]
- effect on baseline CCP or MAP [1, 14]: did not alter CCP or MAP from baseline

Molecule: COc1ccc(OC)c(C(O)C(C)N)c1 (centres unmarked) [METHOX, Methoxamine]
- effect on erectile response to 5V ganglionic stimulation [9]: lowered the erectile response

Molecule: endothelin-1 (CSCSSLMDKECVYFCHLDIIW; Endothelin-1; UniProt P05305 53-73, looked up) [ET-1, vasoconstrictor]
- effect on erectile response to 5V ganglionic stimulation [9]: lowered the erectile response
